Results published in patent US20070093520A1, “Method of treatment of diarrhea-predominant irritable bowel syndrome in a subject” (priority 2005, published 2007).

Tested on: diarrhea-predominant IBS subjects
Test: 3007 Study: open-label 52-week safety study, adverse events and withdrawals
Conditions: Cilansetron 2 mg/Cilansetron 2 mg

Cc1nccn1C[C@H]1CCc2c(c3cccc4c3n2CCC4)C1=O [cilansetron, (R)-(−)-4,5,6,8,9,10-hexahydro-10-[(2-methyl-1H-imidazol-1-yl)methyl]-11H-pyrido-[3,2,1-jk]-carbazol-11-one]
TEAE: Infections and Infestations: 106 (41%) n (%) | TEAE: Influenza: 11 (4%) n (%) | TEAE: Influenza Viral Infections: 11 (4%) n (%) | TEAE: Inguinal Hernia NOS: 0 n (%) | TEAE: Inguinal Hernias: 0 n (%) | TEAE: Injury, Poisoning and Procedural Complications: 26 (10%) n (%) | TEAE: Intervertebral Disc Degeneration NOS: 2 (<1%) n (%) | TEAE: Intervertebral Disc Disorder NOS: 1 (<1%) n (%) | TEAE: Intervertebral Disc Disorders NEC: 5 (2%) n (%) | TEAE: Intervertebral Disc Herniation: 4 (2%) n (%) | TEAE: Intestinal Haemorrhages: 4 (2%) n (%) | TEAE: Intraocular Pressure Increased: 1 (<1%) n (%) | TEAE: Investigations: 77 (30%) n (%) | TEAE: Irritable Bowel Syndrome: 1 (<1%) n (%) | TEAE: Irritable Bowel Syndrome Aggravated: 3 (1%) n (%) | TEAE: Joint Related Disorders NEC: 1 (<1%) n (%) | TEAE: Joint Related Signs and Symptoms: 11 (4%) n (%) | TEAE: Joint Sprain: 1 (<1%) n (%) | TEAE: Joint Swelling: 1 (<1%) n (%) | TEAE: Kidney Infection NOS: 0 n (%) | TEAE: Laceration: 3 (1%) n (%) | TEAE: Ligament Sprain: 1 (<1%) n (%) | TEAE: Limb Discomfort NOS: 0 n (%) | TEAE: Limb Injuries NEC (Incl Traumatic Amputation): 1 (<1%) n (%) | TEAE: Limb Injury NOS: 2 (<1%) n (%) | TEAE: Lip and Palate Disorders NEC: 0 n (%) | TEAE: Liver Function Analyses: 12 (5%) n (%) | TEAE: Liver Function Tests NOS Abnormal: 0 n (%) | TEAE: Localised Infection: 1 (<1%) n (%) | TEAE: Localised Osteoarthritis: 1 (<1%) n (%) | TEAE: Loss of Consciousness: 1 (<1%) n (%) | TEAE: Lower Limb Fracture NOS: 0 n (%) | TEAE: Lower Limb Fractures and Dislocations: 1 (<1%) n (%) | TEAE: Lower Respiratory Tract and Lung Infections: 21 (8%) n (%) | TEAE: Lymphocyte Count Increased: 2 (<1%) n (%) | TEAE: Memory Loss (Excl Dementia): 1 (<1%) n (%) | TEAE: Metabolic Bone Disorders: 2 (<1%) n (%) | TEAE: Metabolism Tests NEC: 4 (2%) n (%) | TEAE: Migraine Headaches: 5 (2%) n (%) | TEAE: Migraine NOS: 5 (2%) n (%) | TEAE: Mineral and Electrolyte Analyses: 2 (<1%) n (%) | TEAE: Monoarthritis: 1 (<1%) n (%) | TEAE: Monocyte Count Decreased: 1 (<1%) n (%) | TEAE: Monocyte Count Increased: 2 (<1%) n (%) | TEAE: Mononeuropathies: 2 (<1%) n (%) | TEAE: Movement Disorder NOS: 0 n (%) | TEAE: Muscle Cramps: 8 (3%) n (%) | TEAE: Muscle Infections and Inflammations: 0 n (%) | TEAE: Muscle Pains: 2 (<1%) n (%) | TEAE: Muscle Related Signs and Symptoms NEC: 9 (4%) n (%) | TEAE: Muscle Spasms: 1 (<1%) n (%) | TEAE: Muscle Strain: 5 (2%) n (%) | TEAE: Muscle Tone Abnormalities: 1 (<1%) n (%) | TEAE: Muscle, Tendon and Ligament Injuries: 6 (2%) n (%) | TEAE: Musculoskeletal Chest Pain: 1 (<1%) n (%) | TEAE: Musculoskeletal and Connective Tissue Disorders: 56 (22%) n (%) | TEAE: Musculoskeletal and Connective Tissue Signs and Symptoms NEC: 19 (7%) n (%) | TEAE: Musculoskeletal and Soft Tissue Imaging Procedures: 0 n (%) | TEAE: Myalgia: 1 (<1%) n (%) | TEAE: Myasthenia Gravis: 0 n (%) | TEAE: Mycoplasma Infections: 1 (<1%) n (%) | TEAE: Myeloradiculopathy: 0 n (%) | TEAE: Myositis: 0 n (%) | TEAE: Nail Fungal Infection NOS: 0 n (%) | TEAE: Nail Infection NOS: 1 (<1%) n (%) | TEAE: Nasopharyngitis: 18 (7%) n (%) | TEAE: Nausea: 15 (6%) n (%) | TEAE: Nausea and Vomiting Symptoms: 19 (7%) n (%) | TEAE: Neck Pain: 1 (<1%) n (%) | TEAE: Nervous System Disorders: 41 (16%) n (%) | TEAE: Neurological Signs and Symptoms NEC: 4 (2%) n (%) | TEAE: Neuromuscular Junction Dysfunction: 0 n (%) | TEAE: Neutrophil Count Decreased: 3 (1%) n (%) | TEAE: Night Cramps: 1 (<1%) n (%) | TEAE: Nitrite Urine Present: 1 (<1%) n (%) | TEAE: Non-Accidental Overdose: 1 (<1%) n (%) | TEAE: Non-Site Specific Injuries NEC: 5 (2%) n (%) | TEAE: Non-Site Specific Procedural Complications: 3 (1%) n (%) | TEAE: Ophthalmic Function Diagnostic Procedures: 1 (<1%) n (%) | TEAE: Oral Dryness and Saliva Altered: 1 (<1%) n (%) | TEAE: Osteoarthritis Aggravated: 3 (1%) n (%) | TEAE: Osteoarthropathies: 4 (2%) n (%) | TEAE: Osteopenia: 0 n (%) | TEAE: Osteoporosis NOS: 2 (<1%) n (%) | TEAE: Otitis Media NOS: 0 n (%) | TEAE: Overdoses: 1 (<1%) n (%) | TEAE: Pain in Limb: 2 (<1%) n (%) | TEAE: Paraesthesias and Dysaesthesias: 1 (<1%) n (%) | TEAE: Parkinson's Disease NOS: 1 (<1%) n (%) | TEAE: Parkinson's Disease and Parkinsonism: 1 (<1%) n (%) | TEAE: Periorbital Haematoma: 1 (<1%) n (%) | TEAE: Peripheral Swelling: 1 (<1%) n (%) | TEAE: Pharyngitis Streptococcal: 4 (2%) n (%) | TEAE: Physical Examination Procedures: 8 (3%) n (%) | TEAE: Plantar Fasciitis: 2 (<1%) n (%) | TEAE: Pneumonia Mycoplasmal: 1 (<1%) n (%) | TEAE: Pneumonia NOS: 1 (<1%) n (%) | TEAE: Popliteal Bursitis: 0 n (%) | TEAE: Post Procedural Discomfort: 1 (<1%) n (%) | TEAE: Post Procedural Pain: 2 (<1%) n (%) | TEAE: Proctalgia: 0 n (%) | TEAE: Protein Urine Present: 2 (<1%) n (%) | TEAE: Pruritus Ani: 0 n (%) | TEAE: Rectal Cramps: 1 (<1%) n (%) | TEAE: Rectal Disorder NOS: 0 n (%) | TEAE: Rectal Haemorrhage: 4 (2%) n (%) | TEAE: Rectal Tenesmus: 0 n (%) | TEAE: Red Blood Cell Analyses: 1 (<1%) n (%) | TEAE: Red Blood Cells Urine: 0 n (%) | TEAE: Renal Bruit: 0 n (%) | TEAE: Renal Function Analyses: 1 (<1%) n (%) | TEAE: Reproductive Organ and Breast Histopathology Procedures: 1 (<1%) n (%) | TEAE: Respiratory Tract Infection NOS: 1 (<1%) n (%) | TEAE: Rheumatoid Arthritis: 0 n (%) | TEAE: Rheumatoid Arthritis Aggravated: 0 n (%) | TEAE: Rheumatoid Arthropathies: 0 n (%) | TEAE: Rhinoviral Infections: 18 (7%) n (%) | TEAE: Rib Fracture: 1 (<1%) n (%) | TEAE: Road Traffic Accident: 1 (<1%) n (%) | TEAE: Rotator Cuff Syndrome: 0 n (%) | TEAE: Seizures and Seizure Disorders NEC: 1 (<1%) n (%) | TEAE: Sinus Headache: 3 (1%) n (%) | TEAE: Sinusitis Acute NOS: 0 n (%) | TEAE: Sinusitis NOS: 24 (9%) n (%) | TEAE: Site Specific Injuries NEC: 6 (2%) n (%) | TEAE: Skeletal and Cardiac Muscle Analyses: 19 (7%) n (%) | TEAE: Skin Fungal Infection NOS: 1 (<1%) n (%) | TEAE: Skin Infection NOS: 0 n (%) | TEAE: Skin Structures and Soft Tissue Infections: 1 (<1%) n (%) | TEAE: Sleep Apnoea Syndrome: 0 n (%) | TEAE: Sleep Apnoeas: 0 n (%) | TEAE: Soft Tissue Disorders NEC: 2 (<1%) n (%) | TEAE: Somnolence: 1 (<1%) n (%) | TEAE: Speech and Language Abnormalities: 0 n (%) | TEAE: Spinal Cord and Nerve Root Disorders NEC: 0 n (%) | TEAE: Spondylitic Myelopathy: 0 n (%) | TEAE: Spondyloarthropathies: 1 (<1%) n (%) | TEAE: Spondylosis: 1 (<1%) n (%) | TEAE: Staphylococcal Infection NOS: 1 (<1%) n (%) | TEAE: Staphylococcal Infections: 1 (<1%) n (%) | TEAE: Status Epilepticus: 1 (<1%) n (%) | TEAE: Stomach Discomfort: 0 n (%) | TEAE: Streptococcal Infection NOS: 1 (<1%) n (%) | TEAE: Streptococcal Infections: 5 (2%) n (%) | TEAE: Stress Fracture: 1 (<1%) n (%) | TEAE: Temporomandibular Joint Disorder NOS: 1 (<1%) n (%) | TEAE: Tendon Disorders: 0 n (%) | TEAE: Tendonitis: 0 n (%) | TEAE: Tension Headaches: 1 (<1%) n (%) | TEAE: Thoracic Cage Fractures and Dislocations: 1 (<1%) n (%) | TEAE: Tinea Cruris: 0 n (%) | TEAE: Tinea Infections: 1 (<1%) n (%) | TEAE: Tinea Pedis: 1 (<1%) n (%) | TEAE: Tissue Enzyme Analyses NEC: 2 (<1%) n (%) | TEAE: Tongue Coated: 1 (<1%) n (%) | TEAE: Tongue Signs and Symptoms: 1 (<1%) n (%) | TEAE: Tooth Abscess: 6 (2%) n (%) | TEAE: Tooth Disorder NOS: 1 (<1%) n (%) | TEAE: Tooth Impacted: 1 (<1%) n (%) | TEAE: Tooth Infection: 1 (<1%) n (%) | TEAE: Toothache: 2 (<1%) n (%) | TEAE: Total Number of Subjects with at Least One TEAE: 220 (86%) n (%) | TEAE: Transient Global Amnesia: 1 (<1%) n (%) | TEAE: Tremor: 1 (<1%) n (%) | TEAE: Tremor (Excl Congenital): 1 (<1%) n (%) | TEAE: Trigger Finger: 0 n (%) | TEAE: Triglyceride Analyses: 6 (2%) n (%) | TEAE: Umbilical Hernia NOS: 1 (<1%) n (%) | TEAE: Umbilical Hernias: 1 (<1%) n (%)
